Experimental data taken from article PMC5681660, “Reduced hepatitis B and D viral entry using clinically applied drugs as novel inhibitors of the bile acid transporter NTCP” (Scientific Reports, 2017).
Counter-ions that a name gives are not always drawn. Like-named read-outs stand apart in the source and are kept apart here. Non-standard residues stand in square brackets, D forms with d. Residues, ends and D or L forms follow the SMILES beside them. pGlu = O=C1CC[C@@H](C(=O)O)N1; Thz = O=C(O)[C@@H]1CSCN1

Columns and labels:
[1] = target: T1, human NTCP (Homo sapiens, UniProt Q14973); assay: Screening taurocholate uptake assay (96-well, [14C]taurocholate, 10 µM drug)
T1 sequence (Q14973 1-349): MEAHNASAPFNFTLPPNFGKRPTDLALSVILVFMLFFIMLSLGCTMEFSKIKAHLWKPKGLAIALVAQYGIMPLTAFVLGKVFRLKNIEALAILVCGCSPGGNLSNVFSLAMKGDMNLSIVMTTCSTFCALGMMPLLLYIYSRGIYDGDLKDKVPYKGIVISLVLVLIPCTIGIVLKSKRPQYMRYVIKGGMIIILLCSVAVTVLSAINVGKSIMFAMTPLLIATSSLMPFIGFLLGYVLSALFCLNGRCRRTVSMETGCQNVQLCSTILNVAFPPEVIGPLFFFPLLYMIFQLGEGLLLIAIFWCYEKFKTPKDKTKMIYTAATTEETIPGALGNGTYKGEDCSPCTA

[2] = target: T1, human NTCP; assay: Screening fluorescent competitive Myrcludex B-FITC binding assay (96-well, 10 µM drug)
[3] = Prestwick library screen, 10 µM drug, B-score of taurocholate uptake
[4] = combined ranking from functional and binding assay B-scores
[5] = Prestwick library screen, 10 µM drug, B-score of Myrcludex B-FITC binding
[6] = combined ranking from functional and binding screening assays
[7] = screen, 10 µM drug, taurocholate uptake
[8] = screen, 10 µM drug, Myrcludex B-FITC binding
[9] = Prestwick library screen, taurocholate uptake, 10 µM drug
[10] = ranking score beside the functional and binding assay B-scores of the screen
[11] = Prestwick library screen, Myrcludex B-FITC binding, 10 µM drug

Cc1cc2c(cc1S(N)(=O)=O)S(=O)(=O)CCC2 [Meticrane]
B-score functional assay [1, 3]: 3.166
Ranking score [1, 4]: 878.911
B-score binding assay [2, 5]: -0.016

CN1Cc2c(N)cccc2C(c2ccccc2)C1 (stereo not drawn) [Nomifensine maleate]
Ranking score [1, 6]: 394.208
B-score functional assay [1, 7]: 0.089
B-score binding assay [2, 8]: -1.176

c1ccc(CN(CC2=NCCN2)c2ccccc2)cc1 [Antazoline hydrochloride]
B-score functional assay [1, 3]: 1.194
Ranking score [1, 4]: 927.719
B-score binding assay [2, 5]: 0.166

COc1cc(N)c(Cl)cc1C(=O)NC1CCN(Cc2ccccc2)CC1 [Clebopride maleate]
B-score functional assay [1, 9]: 0.453
Ranking score [1, 10]: 697.485
B-score binding assay [2, 11]: -0.092

CCCCC1C(=O)N(c2ccccc2)N(c2ccccc2)C1=O [Phenylbutazone]
Ranking score [1, 6]: 440.765
B-score functional assay [1, 7]: 0.138
B-score binding assay [2, 8]: -0.956

COc1ccc(NS(=O)(=O)c2ccc(N)cc2)nn1 [Sulfamethoxypyridazine]
B-score functional assay [1, 3]: 0.331
Ranking score [1, 4]: 989.975
B-score binding assay [2, 5]: 1.584

C=CCN1CC[C@]23c4c5ccc(O)c4O[C@H]2C(=O)CC[C@@]3(O)[C@H]1C5 [Naloxone hydrochloride]
Ranking score ([1]; combined ranking of functional and binding screening assays): 578.749
B-score functional assay ([1]; screening taurocholate uptake, 10 µM drug): -0.111
B-score binding assay [2]: 0

CCN(CC)CCNC(=O)COc1ccc(OC)cc1.Cl [Mefexamide hydrochloride]
B-score functional assay [1, 3]: 1.015
Ranking score [1, 4]: 979.142
B-score binding assay [2, 5]: 0.456

COc1cc2nc(N3CCN(C(=O)C4COc5ccccc5O4)CC3)nc(N)c2cc1OC (stereo not drawn) [Doxazosin mesylate]
B-score functional assay [1]: -0.292
Ranking score [1]: 599.787
B-score binding assay [2]: 0.211

CN(C)C(=O)Oc1cccc([N+](C)(C)C)c1 [Neostigmine bromide]
B-score functional assay [1, 9]: -0.02
Ranking score [1, 10]: 703.343
B-score binding assay [2, 11]: 0.229

O=C(c1ccccc1)c1ccc2n1CCC2C(=O)O (stereo not drawn) [Ketorolac tromethamine]
Ranking score [1, 6]: 396.636
B-score functional assay [1, 7]: -0.269
B-score binding assay [2, 8]: -0.614

CCCc1cc(=O)[nH]c(=S)[nH]1 [Propylthiouracil]
B-score functional assay [1, 9]: 0.437
Ranking score [1, 10]: 823.744
B-score binding assay [2, 11]: 0.14

Nc1nc(N)c2nc(-c3ccccc3)c(N)nc2n1 [Triamterene]
B-score functional assay [1, 9]: 0.708
Ranking score [1, 10]: 725.193
B-score binding assay [2, 11]: -0.121

COc1ccc2cc([C@H](C)C(=O)O)ccc2c1 [Naproxen]
Ranking score [1, 6]: 422.428
B-score functional assay [1, 7]: -0.433
B-score binding assay [2, 8]: -0.298

CCCC(C)(COC(N)=O)COC(=O)NC(C)C (stereo not drawn) [Carisoprodol]
B-score functional assay [1, 9]: -0.248
Ranking score [1, 10]: 768.775
B-score binding assay [2, 11]: 3.83

C#C[C@]1(O)CC[C@H]2[C@@H]3CCC4=Cc5oncc5C[C@]4(C)[C@H]3CC[C@@]21C [Danazol]
Ranking score [1, 6]: 407.041
B-score functional assay [1, 7]: -0.499
B-score binding assay [2, 8]: -0.305

Cc1ncc([N+](=O)[O-])n1CCO [Metronidazole]
B-score functional assay [1, 3]: 1.996
Ranking score [1, 4]: 878.042
B-score binding assay [2, 5]: 0

C[C@H]1[C@H](NC(=O)/C(=N\OC(C)(C)C(=O)O)c2csc(N)n2)C(=O)N1S(=O)(=O)O [Aztreonam]
B-score functional assay [1, 3]: 1.332
Ranking score [1, 4]: 1061.36
B-score binding assay [2, 5]: 0.858

CCN(CC)CCNC(C(=O)OCCC(C)C)c1ccccc1.Cl.Cl (stereo not drawn) [Camylofine chlorhydrate]
B-score functional assay [1, 3]: 1.768
Ranking score [1, 4]: 947.253
B-score binding assay [2, 5]: 0.138

CC(NCCC(c1ccccc1)c1ccccc1)c1ccccc1 (stereo not drawn) [Fendiline hydrochloride]
B-score functional assay [1, 3]: 0.662
Ranking score [1, 4]: 880.552
B-score binding assay [2, 5]: 0.223

O=C1CC[C@@H](C(=O)N2CSC[C@H]2C(=O)O)N1 [Pidotimod] ([pGlu]-[Thz]-OH)
B-score functional assay [1, 3]: 1.132
Ranking score [1, 4]: 884.212
B-score binding assay [2, 5]: 0.063

CCN1CCC[C@H]1CNC(=O)c1c(O)c(Cl)cc(Cl)c1OC [Raclopride]
B-score functional assay [1, 3]: 0.507
Ranking score [1, 4]: 891.19
B-score binding assay [2, 5]: 0.374

CC(=O)Oc1cc(C(F)(F)F)ccc1C(=O)O [Triflusal]
Ranking score [1, 6]: 440.15
B-score functional assay [1, 7]: -0.747
B-score binding assay [2, 8]: -0.002

CC(CN1c2ccccc2Sc2ccccc21)N(C)C (stereo not drawn) [Promethazine hydrochloride]
B-score functional assay [1, 3]: -0.002
Ranking score [1, 4]: 866.133
B-score binding assay [2, 5]: 1.811

CC(CNC1CCCCC1)OC(=O)c1ccccc1 (stereo not drawn) [Hexylcaine hydrochloride]
Ranking score [1, 6]: 435.325
B-score functional assay [1, 7]: 0.196
B-score binding assay [2, 8]: -1.021

Cc1c(N(C)CS(=O)(=O)[O-])c(=O)n(-c2ccccc2)n1C.[Na+] [Dipyrone]
Ranking score [1, 6]: 355.307
B-score functional assay [1, 7]: -0.152
B-score binding assay [2, 8]: -0.963

CCN(CCCc1ccccc1)CCCc1ccccc1.O=C(O)CC(O)(CC(=O)O)C(=O)O [Alverine citrate salt]
Ranking score [1, 6]: 318.591
B-score functional assay [1, 7]: -1.552
B-score binding assay [2, 8]: -0.052

CCCN(CCC)CCc1cccc2c1CC(=O)N2 [Ropinirole HCl]
B-score functional assay [1, 9]: -0.072
Ranking score [1, 10]: 825.121
B-score binding assay [2, 11]: 2.082

C[C@H]1C[C@@H]2[C@H]([C@@H](O)C[C@@]3(C)[C@H]2CC[C@]3(O)C(=O)CO)[C@@]2(C)C=CC(=O)C=C12 [Methylprednisolone, 6-alpha]
B-score functional assay [1, 3]: 0.477
Ranking score [1, 4]: 941.018
B-score binding assay [2, 5]: 0.779

O=c1[nH]cnc2c1ncn2[C@H]1CC[C@@H](CO)O1 [Didanosine]
B-score functional assay [1, 3]: 0.086
Ranking score [1, 4]: 927.069
B-score binding assay [2, 5]: 1.663

CCOc1ccc(NC(C)=O)cc1 [Phenacetin]
B-score functional assay [1, 3]: 0.074
Ranking score [1, 4]: 860.113
B-score binding assay [2, 5]: 0.917

CC(C)NC[C@@H](O)COc1cccc2ccccc12.Cl [(R)-Propranolol hydrochloride]
B-score functional assay [1]: 1.016
Ranking score [1]: 935.855
B-score binding assay [2]: 0.252

CC(=O)Oc1ccccc1C(=O)Oc1ccccc1C(=O)O [Acetylsalicylsalicylic acid]
B-score functional assay [1, 9]: 0.347
Ranking score [1, 10]: 734.743
B-score binding assay [2, 11]: -0.007

CC(C)(C)NC(=O)[C@@H]1CN(Cc2cccnc2)CCN1C[C@@H](O)C[C@@H](Cc1ccccc1)C(=O)N[C@H]1c2ccccc2C[C@H]1O [Indinavir sulfate]
B-score functional assay [1, 9]: -0.197
Ranking score [1, 10]: 710.601
B-score binding assay [2, 11]: 1.008

CCOC(=O)C1=C(COCCN)NC(C)=C(C(=O)OC)C1c1ccccc1Cl (stereo not drawn) [Amlodipine]
B-score functional assay [1, 3]: 0.5
Ranking score [1, 4]: 1057.69
B-score binding assay [2, 5]: 2.427

CCC1(c2ccc(N)cc2)CCC(=O)NC1=O (stereo not drawn) [Glutethimide, para-amino]
B-score functional assay [1, 9]: 0.113
Ranking score [1, 10]: 663.514
B-score binding assay [2, 11]: -0.055

CCCNC(C)C(=O)Nc1ccccc1C (stereo not drawn) [Prilocaine hydrochloride]
Ranking score [1, 6]: 304.329
B-score functional assay [1, 7]: 0.027
B-score binding assay [2, 8]: -1.737

CCN(CC)CCOC(=O)c1ccc(N)cc1 [Procaine hydrochloride]
Ranking score [1, 6]: 459.439
B-score functional assay [1, 7]: -1.181
B-score binding assay [2, 8]: 0.574

Cn1c(=O)c2c(ncn2CC2OCCO2)n(C)c1=O [Doxofylline]
B-score functional assay [1, 3]: 3.316
Ranking score [1, 4]: 1049.35
B-score binding assay [2, 5]: 0.388
